Patent US12257251B2, “Use of FAK inhibitor in preparation of drug for treating tumors having NRAS mutation” (INXMED (NANJING) CO., LTD., priority 2019, dated 2025)

System: GAK (NRAS^Q61L) melanoma cell line
Test: GAK CDX model (melanoma with an NRAS mutation): tumor growth
Type: in vivo, mouse
Settings: for Tumor growth compared to the control group (in words): GAK model, daily treatment; for Mean TGI: daily, based on relative tumor volume on day 14
Method: 1.1. Test compound: BI853520, which was synthesized according to the method in the patent WO2010058032. BI853520 was formulated with 0.5% hydroxyethyl cellulose (Ashland).
1.2. Cells: The melanoma cell line GAK was purchased from JCRB Cell Bank, and HMVII cells were purchased from Sigma. GAK originated in the inguinal lymph nodes of patients with vaginal melanoma, whereas HMVII originated in primary vaginal melanoma. GAK and HMVII cells were cultured in tissue culture flasks containing 5% CO2 at 37° C. The media were Ham's F12 containing 10% heat-inactivated FBS and Ham's F10 containing 15% FBS, respectively. All media were supplemented with 100 U/mL penicillin, […] streptomycin, and 2 mM GlutaMAX. All cell culture reagents were purchased from GIBCO.
Both HMVII and GAK cell lines carried an NRAS mutation at the Q61 position. HMVII (NRAS^Q61K) and GAK (NRAS^Q61L)
1.3. Mice: 4-week-old female balb/c nude mice (purchased from Beijing Vital River Laboratory Animal Technology Co., Ltd.). After arriving in the animal room, the mice were allowed to acclimate to the new environment for at least 2 weeks before being used for assay. The animals were housed under standard conditions (temperature: 21.5±1.5° C., humidity: 55±10%). A Standard diet and autoclaved tap water were provided ad libitum. All animal care and experimental procedures were performed in accordance with the animal care ethics guidelines approved by the Medical Ethics Committee of Beijing Cancer Hospital and Research Institute.
To establish subcutaneous tumors, HMVII and GAK cells were harvested by trypsinization, centrifuged, washed and resuspended in ice-cold PBS+5% FCS. Then 100 l of the cell suspension containing 5×10^6 cells was injected subcutaneously into the right flank of nude mice (1 site per mouse). When tumors were well established and reached a median volume of approximately 400-600 mm^3, mice were randomly assigned to the treatment group and the control group.
1.5. Administration: BI 853520 was formulated in 0.5% hydroxyethyl cellulose, which was intragastrically administered through gavage needle every day, and the dosage was 10 mL/Kg body weight.
Tumor diameters were measured twice a week with calipers. The volume [mm^3] of each tumor was calculated according to the equation “tumor volume=length×diameter^2×π/6”. Animals were sacrificed at the end of the study (approximately two weeks after the start of treatment). During the study, animals with necrotic tumors or tumors exceeding 2000 mm^3 in size were sacrificed for ethical reasons.
Tumor volumes were statistically assessed at the end of the assay. For tumor volume, relative values were used.
The number of observations, and the median, minimum and maximum tumor volumes were calculated. For a quick overview of possible treatment effects, the following metrics were calculated: • Relative tumor volume: (T/C)
[formula] • TGI from day 1 to day d: TGI=100×[(Cd−C1)−(Td−T1)]/(Cd−C1) • wherein, C1, T1=mean relative tumor volume in control and treatment groups at the start of the assay (day 1); • Cd, Td=mean relative tumor volume in control and treatment groups at the end of the assay (day d).
Statistical evaluation was performed using the Student's t-test function in Microsoft Excel, using two-tailed distribution and two-sample equal variance type.
The significance level was fixed at α=5%. […]

## COc1cc(C(=O)NC2CCN(C)CC2)c(F)cc1Nc1ncc(C(F)(F)F)c(Oc2cccc3c2C(=O)N(C)C3)n1 [BI853520]
  Tumor growth compared to the control group (in words): inhibit tumor growth
Listed as BI 853520
  Tumor growth compared to the control group (in words): delayed tumor growth
GAK, 50 mg/kg (1st week), 25 mg/kg (2nd week), daily gavage, day 14
  Mean tumor volume: 548 ± 144 mm^3
GAK, 50 mg/kg (1st week), 25 mg/kg (2nd week)
  Mean TGI: 80%
GAK, 50 mg/kg (1st week), 25 mg/kg (2nd week), listed as BI 853520
  Mean TGI: 80%
